# Results published in PMC5509744 (Scientific Reports, 2017).
# Where two headings read alike, the source gives them in different places.
# Key:
# PMM/PGM [1] = target: T1, PMM/PGM (Pseudomonas aeruginosa, UniProt P26276, S108C); experiment: biochemical
# T1 construct: gene algC
# PMM/PGM [2] = target: T1, PMM/PGM; settings: read-out: Apparent dissociation constant; 50 mM MOPS pH 7.4, 1 mM MgCl2, 310 K; unphosphorylated enzyme
# T1 sequence (P26276 whole entry S108C): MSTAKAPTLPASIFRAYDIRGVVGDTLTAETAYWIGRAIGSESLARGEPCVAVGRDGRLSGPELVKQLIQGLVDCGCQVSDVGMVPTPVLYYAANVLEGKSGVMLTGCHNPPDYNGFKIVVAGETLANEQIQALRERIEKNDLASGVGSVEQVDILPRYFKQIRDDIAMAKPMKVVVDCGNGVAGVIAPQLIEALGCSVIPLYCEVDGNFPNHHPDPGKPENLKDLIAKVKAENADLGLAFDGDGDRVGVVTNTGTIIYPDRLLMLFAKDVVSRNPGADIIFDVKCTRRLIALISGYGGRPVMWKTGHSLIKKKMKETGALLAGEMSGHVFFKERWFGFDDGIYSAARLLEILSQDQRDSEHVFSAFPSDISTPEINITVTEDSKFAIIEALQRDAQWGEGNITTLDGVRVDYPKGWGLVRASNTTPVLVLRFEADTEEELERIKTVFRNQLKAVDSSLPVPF
Structure (SMILES),Kd (PMM/PGM [1]),Kd (PMM/PGM [2])
"O=P(O)(O)OC[C@H]1O[C@H](OP(=O)(O)O)[C@H](O)[C@@H](O)[C@@H]1O [G16P, glucose 1,6-bisphosphate]",839 ± 221 µM,–
"O=P(O)(O)OC[C@H]1OC(O)[C@H](O)[C@@H](O)[C@@H]1O (stereo partly shown) [G6P, glucose 6-phosphate]",–,20 ± 7 µM
"O=P(O)(O)O[C@H]1O[C@H](CO)[C@@H](O)[C@H](O)[C@H]1O [G1P, glucose 1-phosphate]",198 ± 48 µM,–
"O=P(O)(O)O[C@H]1OC[C@@H](O)[C@H](O)[C@H]1O [X1P, xylose 1-phosphate]",11 ± 9 µM,–
